Experimental data published in patent publication EP0430037A2, “Process for producing 2-carbon-substituted carbapenem derivatives” (BANYU PHARMACEUTICAL CO., LTD., priority 1989, dated 1991).

How the values were obtained:
[1] = Concentration in blood and recovery rate in urine after oral administration (bioassay); assay type: in vivo, ddY male mice; settings: mouse, 40 mg/kg orally, mice, bioassay with S. lutea PC 11001, Example 26 quantified as its non-ester form (Example 25); for concentration at 0.25 h: read-out: Concentration in blood 0.25 hr later; for concentration at 0.5 h: read-out: Concentration in blood 0.5 hr later
Procedure: (3) Concentration in blood and recovery rate in urine
ddY male mice of 4 weeks old
40 mg/kg of the test compound was orally administered to each mouse, and the change with time of the concentration in blood and the recovery rate in urine for from 0 to 6 hours were measured. The quantitative analysis was conducted by a bioassay using S. lutea PC 11001 as the test microorganism. With respect to the compound of Example 26, the quantitative analysis was conducted in the form of its non-ester form i.e. as the compound of Example 25.

[2] = tested on: S. aureus 4970; assay: Protective effects against experimental infectious disease of mice; assay type: in vivo, Male mice (ddY); settings: Staphylococcus aureus, 4970, 96 h; oral administration one hour after inoculation of 5 x 10⁵ cells in 5% mucin; mortality four days later; eight mice per group; read-out: ED₅₀
Procedure: (2) Protective effects against experimental infectious disease of mice
Male mice (ddY) of 4 weeks old having body weights of 20±1 g were employed, and the test was conducted with eight mice per group. Microorganism used: S. aureus 4970
5 x 10⁵ cells of the pathogenic microorganism suspended in 5% mucin were […] injected to each mouse. One hour after the inoculation of the microorganism, the compound of the present invention was orally administered in the form of solutions having various concentrations. Four days later, the mortality of the mice was determined, and the ED₅₀ value was calculated.

[3] = tested on: S. aureus 209P NIHJ JC1; assay: Antibacterial activities in vitro (agar plate dilution method); assay type: cell-based; settings: Staphylococcus aureus; Mueller Hinton agar, inoculum size 10⁶ CFU/mℓ, 37°C for 16 hours
Procedure: (1) Antibacterial activities in vitro The antibacterial activities were measured by the following agar plate dilution method. One platinum loopful of each test microorganism incubated overnight in Mueller Hinton broth, was inoculated to Mueller Hinton agar (inoculum size: 10⁶ CFU/mℓ). Such a culture medium contained a test compound in a predetermined concentration.

Row | Compound | concentration at 0.25 h ([1]; blood) | concentration at 0.5 h ([1]; blood) | ED50 [2] | concentration at 1 h ([1]; blood, read-out: Concentration in blood 1 hr later) | dose excreted at 6 h ([1]; urine, 0-6 hrs) | MIC [3]
1 | C=C(C)C1=C(C(=O)OCOC(=O)C(C)(C)C)N2C(=O)[C@H]([C@@H](C)O)[C@H]2[C@H]1C [Example 26, Pivaloyloxymethyl (1S,5R,6S)-6-((1R)-1-hydroxyethyl)-2-(1-methylvinyl)-1-methylcarbapen-2-em-3-carboxylate] | 44900 ng/mL | 29100 ng/mL | 0.36 mg/kg |  |  | 
2 | C=C(C)C1=C(C(=O)O)N2C(=O)[C@H]([C@@H](C)O)[C@H]2[C@H]1C [Example 25, Sodium (1S,5R,6S)-6-((1R)-1-hydroxyethyl)-2-(1-methylvinyl)-1-methylcarbapen-2-em-3-carboxylate] | 4100 ng/mL | 2900 ng/mL | 0.34 mg/kg | 1600 ng/mL | 1.8% | 0.05 µg/mL
